Experimental data reported in paper PMC10847070, “State-independent inhibition of the oncogenic Kv10.1 channel by desethylamiodarone, a comparison with amiodarone” (Pflugers Archiv, 2023).

Target: T1, Kv10.1 (Eag1) (Homo sapiens, UniProt O95259)
T1 construct: gene KCNH1
T1 sequence (O95259 1-989): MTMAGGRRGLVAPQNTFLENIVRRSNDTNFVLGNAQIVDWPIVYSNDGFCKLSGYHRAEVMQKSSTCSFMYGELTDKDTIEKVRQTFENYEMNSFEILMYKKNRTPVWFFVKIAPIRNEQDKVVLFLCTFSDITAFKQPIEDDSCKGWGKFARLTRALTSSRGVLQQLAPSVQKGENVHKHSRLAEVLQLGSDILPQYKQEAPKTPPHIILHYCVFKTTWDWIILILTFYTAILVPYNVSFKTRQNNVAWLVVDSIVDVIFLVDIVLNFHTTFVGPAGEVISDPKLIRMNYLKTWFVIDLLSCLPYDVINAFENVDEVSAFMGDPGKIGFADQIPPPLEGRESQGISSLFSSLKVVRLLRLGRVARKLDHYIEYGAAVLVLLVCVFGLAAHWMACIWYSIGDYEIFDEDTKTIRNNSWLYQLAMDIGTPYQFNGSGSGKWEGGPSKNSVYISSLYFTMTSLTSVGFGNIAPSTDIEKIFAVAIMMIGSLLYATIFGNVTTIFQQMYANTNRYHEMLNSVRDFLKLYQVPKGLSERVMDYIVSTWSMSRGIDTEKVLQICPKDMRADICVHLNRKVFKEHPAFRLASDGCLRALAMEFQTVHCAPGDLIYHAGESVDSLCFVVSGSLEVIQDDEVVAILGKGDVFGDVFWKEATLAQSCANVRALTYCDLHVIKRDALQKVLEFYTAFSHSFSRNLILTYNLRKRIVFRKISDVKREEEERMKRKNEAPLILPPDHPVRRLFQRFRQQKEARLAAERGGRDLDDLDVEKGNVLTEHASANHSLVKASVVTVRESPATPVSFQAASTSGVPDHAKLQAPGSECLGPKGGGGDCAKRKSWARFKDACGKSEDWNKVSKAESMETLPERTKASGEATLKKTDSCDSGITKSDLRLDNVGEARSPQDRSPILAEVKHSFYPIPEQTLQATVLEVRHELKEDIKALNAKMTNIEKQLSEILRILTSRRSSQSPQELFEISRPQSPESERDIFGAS
Test: patch-clamp electrophysiology of HEK293 cells stably expressing Kv10.[…]; dose-response at +[…] mV
Format: cell-based

Kd: 1200 nM
SMILES: CCCCc1oc2ccccc2c1C(=O)c1cc(I)c(OCCNCC)c(I)c1 [desAd, desethylamiodarone]
